This passage reports IC50 and Kd results from US20240140953A1, “INHIBITORS OF MENIN-MLL INTERACTION” (BIOMEA FUSION, INC., priority 2018, published 2024).

One experiment concerns MV-4-11. In words: Long term proliferation assay (Table 3A), MV-4-11. The conditions noted are these: Homo sapiens, MV4-11. In kind it is cell-based. As for the experimental part:
(§1) Example 5b: IC50 determination of compounds of invention in various cell lines (Long Term Proliferation Assay)
(§2) The following 5 cell lines are used or can be used for the long term proliferation assay.
(§3) Compounds of invention are tested in the 5 suspension lines by 14-day long-term proliferation assay.
(§4) The compound is tested in 10-pt dose titration (client will determine the starting concentration and the dilution scheme) and the final DMSO concentration is kept at 0.2%.
(§5) Vehicle and media control are also included. All treatments are done in triplicate.
(§6) 3 plates are used for each cell line and 15 plates are used for the 5 cell lines.
(§7) • 1) On Day 0, in a flat bottom 96-well plate, add 100 μL of cells per well at the densities optimized. • 2) Prepare compounds in DMSO at 500× final concentration. Dilute the compounds with DMSO at the dilution. • 3) Dilute the compounds in media at 3×final concentration. Add 50 μL of compound or DMSO at 3× final concentration to each well. Final volume in each well is 150 μL, and final concentration of DMSO is 0.2%. Also include 3 untreated control wells, by adding 50 μL of media alone. 4) Incubate plates for 96 hours. • 5) Count the cells using the Acumen, with capabilities for 96-well plates. Pipette cells up and down to mix in each well, and add desired volume of cells to a new flat bottom poly-D-lysine 96-well plate. Add Calcein AM at 1 μM final concentration. Let cells sit at RT for 10 mins followed by a quick spin to get cells settled on the bottom of the wells. Incubate the plate for additional 40 mins in the incubator. Take out the plate and read by Acumen. Calculate the cell numbers taken into account the dilution factors. • 6) Split the master plate. To do this take the total viable cell count calculated using step 5). Take the average of the replicates for each dose in order to be used in splitting the cells. • 7) Use a 96 well V-bottom plate to spin down the cells to remove old media and compound to split the cells. Based on the split ratio place the proper amount of media and cells into the V-bottom plate, and spin the plate at 1100 rpm for 5 minutes. • 8) Following the spin remove the media, careful not to disturb the cellpellet. • 9) Re-suspend pellet in 100 μL fresh media, and add to a new 96-well flat bottom plate. • 10) Add fresh compound, in the same manner as Step 3). • 11) Incubate plates for 72 hours. Repeat steps 5)-10) on Day 7. • 12) Incubate plates for 96 hours. Repeat Step 5)-10) on Day 11. • 13) Incubate 72 hours and repeat step 5) to take a final count. • 14) Data Analysis
(§8) To calculate growth for days 4, 7, 11, and 14: • Calculate the split factor for day 4 to 7, day 7 to 11, and day 11-14.

Experiment [1] deals with MOLM-13. In words: Long term proliferation assay (Table 3A), MOLM-13. In kind it is cell-based. Particulars: Homo sapiens. As for the experimental part:
as §1, §2, §3, §4, §5, §6, §7, §8

The target of a further experiment is menin (Homo sapiens (Human), UniProt O00255). The experiment is described as follows: Kd (Table 3A). In kind it is binding.
Experiment [2] concerns KG-1. In words: Long term proliferation, Cell Titer-Glo (Table 3B), KG-1. The class given is cell-based. Particulars: Homo sapiens, KG-1, Cell Titer-Glo. On the technique in general: In ATP-based viability assays light output follows the ATP content of the culture.
In experiment [3] the test system is MOLM-13. In words: Long term proliferation, Cell Titer-Glo (Table 3B), MOLM-13. The class given is cell-based. The conditions noted are these: Homo sapiens, MOLM-13, Cell Titer-Glo.
For experiment [4], the system named is OCI-AML-3. In words: Long term proliferation, Cell Titer-Glo (Table 3B), OCI-AML-3. The class given is cell-based. The conditions noted are these: Homo sapiens, OCI-AML-3, Cell Titer-Glo.
Experiment [5] deals with MV4-11. In words: Long term proliferation, Cell Titer-Glo (Table 3B), MV4-11. The class given is cell-based. The conditions noted are these: Homo sapiens, MV4-11, Cell Titer-Glo.
The subject of experiment [6] is KG-1. In words: Long term proliferation, InCell (Table 3C), KG-1. The class given is cell-based. Particulars: Homo sapiens, KG-1, InCell. As to the method:
as §3, §4, §5, §7, §8

In experiment [7] the test system is MOLM-13. In words: Long term proliferation, InCell (Table 3C), MOLM-13. In kind it is cell-based. The conditions noted are these: Homo sapiens, MOLM-13, InCell. As to the method:
as §3, §4, §5, §7, §8

Experiment [8] relates to OCI-AML-3. The experiment is described as follows: Long term proliferation, InCell (Table 3C), OCI-AML-3. The class given is cell-based. The conditions noted are these: Homo sapiens, OCI-AML-3, InCell. As for the experimental part:
as §3, §4, §5, §7, §8

Experiment [9] relates to MV4-11. The experiment is described as follows: Long term proliferation, InCell (Table 3C), MV4-11. In kind it is cell-based. The conditions noted are these: Homo sapiens, MV4-11, InCell. As for the experimental part: as §3, §4, §5, §7, §8
A further experiment has as its target Menin-MLL (Homo sapiens (Human), UniProt O00255). The experiment is described as follows: Menin-MLL in vitro inhibitory activity (Example 101a, Table 2). The class given is cell-based.
Where [10] appears, read: MV-4-11, Day 4, read-out: MV-4-11 Day 4 IC50.
[11] abbreviates: MV-4-11, Day 11, read-out: MV-4-11 Day 11 IC50.
[12] abbreviates: 96 h, MOLM-13, Day 4, read-out: MOLM-13 Day 4 IC50.
The mark [13] stands for this setting: 264 h, MOLM-13, Day 11, read-out: MOLM-13 Day 11 IC50.
Setting [14] is: 96 h, Day 4, read-out: Day 4 IC50.
[15] abbreviates: 168 h, Day 7, read-out: Day 7 IC50.
Where [16] appears, read: 264 h, Day 11, read-out: Day 11 IC50.
[17] abbreviates: 336 h, Day 14, read-out: Day 14 IC50.

Where two headings read alike, the source gives them in different places. Where only a bound is given, the exact number is not on record here.

menin, sequence (O00255 whole entry, species assumed): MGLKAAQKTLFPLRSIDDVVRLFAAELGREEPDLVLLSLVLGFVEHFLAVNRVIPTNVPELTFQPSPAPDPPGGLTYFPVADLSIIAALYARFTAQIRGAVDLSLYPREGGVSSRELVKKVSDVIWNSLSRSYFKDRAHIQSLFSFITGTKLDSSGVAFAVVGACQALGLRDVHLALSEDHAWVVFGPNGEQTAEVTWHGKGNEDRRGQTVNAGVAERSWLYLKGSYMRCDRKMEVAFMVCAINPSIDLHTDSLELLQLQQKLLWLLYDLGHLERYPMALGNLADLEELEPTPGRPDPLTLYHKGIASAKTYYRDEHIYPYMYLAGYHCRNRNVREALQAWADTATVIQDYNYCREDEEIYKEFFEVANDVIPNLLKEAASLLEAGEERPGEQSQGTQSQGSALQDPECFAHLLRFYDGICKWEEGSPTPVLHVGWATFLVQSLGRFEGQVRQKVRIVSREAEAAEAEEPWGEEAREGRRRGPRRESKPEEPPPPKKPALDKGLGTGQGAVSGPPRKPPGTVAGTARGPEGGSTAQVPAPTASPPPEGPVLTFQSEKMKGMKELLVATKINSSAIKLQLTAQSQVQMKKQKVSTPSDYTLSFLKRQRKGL
Menin-MLL, sequence (O00255 whole entry): as the sequence (O00255 whole entry, species assumed) above

By IC50 is commonly meant the concentration that gives 50% inhibition. A word on the Kd: it is the concentration at which binding is half-saturated. Take `O=C(Nc1ccc(-c2cc3c(N4CCOCC4)ncnc3[nH]2)cc1)Nc1cc(-c2ccncc2)no1` [Compound 8, 1-{4-[4-(morpholin-4-yl)-7H-pyrrolo[2,3-d]pyrimidin-6-yl]phenyl}-3-[3-(pyridin-4-yl)-1,2-oxazol-5-yl]urea]: the IC50 worked out at 355 nM with MV-4-11 (setting [10]); 71 nM with MV-4-11 (setting [11]); 224 nM in the experiment on MOLM-13 [1] (setting [12]); 55 nM with MOLM-13 [1] (setting [13]); 4900 nM in the experiment on KG-1 [2] (setting [14]); 2950 nM in the experiment with KG-1 [2] (setting [15]). In addition, the half-maximal inhibitory concentration (IC50) in the experiment on KG-1 [2] (setting [16]) was found to be 2140 nM; in the experiment with KG-1 [2] (setting [17]), 680 nM; in the experiment on MOLM-13 [3] (setting [14]), 320 nM; in the experiment with MOLM-13 [3] (setting [15]) it was 200 nM; with MOLM-13 [3] (setting [16]), 150 nM; with MOLM-13 [3] (setting [17]), 250 nM. The IC50 in the experiment with OCI-AML-3 [4] (setting [14]) amounted to 590 nM; in the experiment with OCI-AML-3 [4] (setting [15]) it was 560 nM; in the experiment with OCI-AML-3 [4] (setting [16]), 550 nM; with OCI-AML-3 [4] (setting [17]) it was 550 nM; with MV4-11 [5] (setting [14]) it was 540 nM; in the experiment with MV4-11 [5] (setting [15]), 100 nM. Besides, the IC50 with MV4-11 [5] (setting [16]) turned out to be 200 nM; with MV4-11 [5] (setting [17]), 60 nM; in the experiment with KG-1 [6] (setting [14]), 3240 nM; in the experiment on KG-1 [6] (setting [16]) it was 2090 nM; in the experiment on MOLM-13 [7] (setting [14]), 370 nM; with MOLM-13 [7] (setting [16]), 190 nM. In addition, the IC50 in the experiment on OCI-AML-3 [8] (setting [14]) came to 490 nM; in the experiment on OCI-AML-3 [8] (setting [16]), 540 nM; in the experiment on MV4-11 [9] (setting [14]), 350 nM; in the experiment on MV4-11 [9] (setting [16]), 280 nM. At menin, this compound had a Kd of 250 nM.

Regarding `O=C(Nc1ccc(-c2cc3c(N4CCOCC4)ncnc3[nH]2)cc1)Nc1cc(-c2cccnc2)no1` [Compound 2, 1-(4-(4-morpholino-7H-pyrrolo[2,3-d]pyrimidin-6-yl)phenyl)-3-(3-(pyridin-3-yl)isoxazol-5-yl)urea], the IC50 against Menin-MLL worked out at 240 nM; in the experiment on MV-4-11 (setting [10]) it was 174 nM; in the experiment with MV-4-11 (setting [11]) it was 55 nM; with MOLM-13 [1] (setting [12]) it was 74 nM; in the experiment on MOLM-13 [1] (setting [13]), 54 nM. The dissociation constant Kd on menin was more than 1000 nM.
